Results published in patent US9617244B2, “Antibacterial quinoline derivatives” (JANSSEN PHARMACEUTICA NV, priority 2012, dated 2017).
Converted amounts (≈) assume the structure as drawn.

How the values were obtained:
[1] = test system: Mycobacterium smegmatis (ATCC607); experiment: In-vitro anti-bacterial activity against strain M. Smegmatis ATCC607; type: cell-based; conditions: 90% inhibitory concentration for bacterial growth, Alamar Blue fluorescence; for IC90 MSM 607: 48 hours
Outline: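 Serial five-fold compound dilutions in BSA-supplemented wells, inoculated with ~250 CFU/well in Mueller-Hinton broth, incubated 48 h at 37 °C, 5% CO2. Growth read by Alamar Blue fluorescence (ex 530/em 590 nm); IC90 in μg/ml.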

[2] = test system: Staphylococcus aureus (ATCC29213); experiment: In-vitro anti-bacterial activity, microtitre plate assay, IC90 determination (non-mycobacterial strains); type: cell-based; conditions: 90% inhibitory concentration for bacterial growth, resazurin fluorescence; for IC90 STA B29213: 24 hours; for IC90: Staphylococcus aureus, ATCC29213, 24 h, read-out: IC90 STA B29213
Outline: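 Inoculum of about 100 TCID50 (10–60 CFU/well) in Mueller-Hinton broth, serial five-fold compound dilutions, 24 h at 37 °C in air. Growth read by resazurin fluorescence (ex 530/em 590 nm); IC90 in μg/ml as 90% growth inhibition.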

SMILES | IC90 MSM 607 [1] | IC90 STA B29213 [2] | IC90 ([1]; Mycolicibacterium smegmatis, ATCC607, 48 h, read-out: IC90 MSM 607) | IC90 [2]
COc1nc2ccc(SC)cc2cc1C(c1ccc(Cl)cc1)C1(O)CCNC(c2ccc(F)cc2C)C1 (centres unmarked) [Compound 274] | 1.07 µg/mL (≈ 1.99 µM) | 1.91 µg/mL (≈ 3.56 µM) |  | 
COc1nc2ccc(SC)cc2cc1C(c1ccc(Cl)cc1)C1(O)CCNC(c2ccc(F)cc2C)C1 (centres unmarked) [Compound 276] | 1.07 µg/mL (≈ 1.99 µM) | 1.70 µg/mL (≈ 3.17 µM) |  | 
CSc1ccc2[nH]c(=O)c(C(c3ccc(Cl)cc3)C3(O)CCNC(Cc4ccc(F)cc4)C3)cc2c1 (centres unmarked) [Compound 281] |  | 3.53 µg/mL (≈ 6.75 µM) | 7.03 µg/mL (≈ 13.4 µM) | 
CSc1ccc2[nH]c(=O)c(C(c3ccc(Cl)cc3)C3(O)CCNC(Cc4ccc(F)cc4)C3)cc2c1 (centres unmarked) [Compound 282] | 7.02 µg/mL (≈ 13.4 µM) | 7.02 µg/mL (≈ 13.4 µM) |  | 
COc1nc2ccc(SC)cc2cc1C(c1ccc(Cl)cc1)C1(O)CCNCC1Cc1cccc(F)c1 (centres unmarked) [Compound 284] | 3.38 µg/mL (≈ 6.29 µM) | 4.25 µg/mL (≈ 7.91 µM) |  | 
COc1nc2ccc(SC)cc2cc1C(c1ccc(Cl)cc1)C1(O)CCNCC1Cc1cccc(F)c1 (centres unmarked) [Compound 285] | >13.49 µg/mL | >13.49 µg/mL |  | 
COc1nc2ccc(SC)cc2cc1C(c1ccc(Cl)cc1)C1(O)CCNCC1Cc1cccc(F)c1 (centres unmarked) [Compound 286] | 2.12 µg/mL (≈ 3.95 µM) | 4.22 µg/mL (≈ 7.86 µM) |  | 
COc1nc2ccc(SC)cc2cc1C(c1ccc(Cl)cc1)C1(O)CCNC(CC2CCCCC2)C1 (centres unmarked) [Compound 288] | 3.41 µg/mL (≈ 6.49 µM) | 4.29 µg/mL (≈ 8.17 µM) |  | 
COc1nc2ccc(SC)cc2cc1C(c1ccc(Cl)cc1)C1(O)CCNC(CC2CCCCC2)C1 (centres unmarked) [Compound 289] | 3.36 µg/mL (≈ 6.4 µM) | 4.23 µg/mL (≈ 8.05 µM) |  | 
COc1nc2ccc(SC)cc2cc1C(c1ccc(Cl)cc1)C1(O)CCNC(CC2CCCCC2)C1 (centres unmarked) [Compound 290] | 2.63 µg/mL (≈ 5.01 µM) | 2.35 µg/mL (≈ 4.47 µM) |  | 
COc1nc2ccc(S(C)(=O)=O)cc2cc1C(c1ccc(Cl)cc1)C1(O)CCNCC1Cc1cccc(F)c1 (centres unmarked) [Compound 292] | 5.69 µg/mL (≈ 10 µM) | 7.16 µg/mL (≈ 12.6 µM) |  | 
COc1nc2ccc(S(C)(=O)=O)cc2cc1C(c1ccc(Cl)cc1)C1(O)CCNCC1Cc1cccc(F)c1 (centres unmarked) [Compound 293] | 7.16 µg/mL (≈ 12.6 µM) | 7.16 µg/mL (≈ 12.6 µM) |  | 
COc1nc2ccc(S(C)(=O)=O)cc2cc1C(c1ccc(Cl)cc1)C1(O)CCNCC1Cc1cccc(F)c1 (centres unmarked) [Compound 294] | 14.30 µg/mL (≈ 25.1 µM) | 11.36 µg/mL (≈ 20 µM) |  | 
CSc1ccc2[nH]c(=O)c(C(c3ccc(Cl)cc3)C3(O)CCNC(CC4CCCCC4)C3)cc2c1 (centres unmarked) [Compound 295] | 3.43 µg/mL (≈ 6.71 µM) | 3.43 µg/mL (≈ 6.71 µM) |  | 
CSc1ccc2[nH]c(=O)c(C(c3ccc(Cl)cc3)C3(O)CCNC(CC4CCCCC4)C3)cc2c1 (centres unmarked) [Compound 296] | 6.85 µg/mL (≈ 13.4 µM) | 3.43 µg/mL (≈ 6.71 µM) |  | 
CSc1ccc2[nH]c(=O)c(C(c3ccc(Cl)cc3)C3(O)CCNC(CC4CCCCC4)C3)cc2c1 (centres unmarked) [Compound 297] | 13.65 µg/mL (≈ 26.7 µM) | 3.43 µg/mL (≈ 6.71 µM) |  | 
CSc1ccc2[nH]c(=O)c(C(c3ccc(Cl)cc3)C3(O)CCNC(CC4CCCCC4)C3)cc2c1 (centres unmarked) [Compound 298] | 6.88 µg/mL (≈ 13.5 µM) | 6.88 µg/mL (≈ 13.5 µM) |  | 
COc1nc2ccc(S(C)(=O)=O)cc2cc1C(c1ccc(Cl)cc1)C1(O)CCNC(Cc2ccc(F)cc2F)C1 (centres unmarked) [Compound 305] | 18.76 µg/mL (≈ 32 µM) | 18.76 µg/mL (≈ 32 µM) |  | 
COc1nc2ccc(S(C)(=O)=O)cc2cc1C(c1ccc(Cl)cc1)C1(O)CCNC(Cc2ccc(F)cc2F)C1 (centres unmarked) [Compound 306] | 4.70 µg/mL (≈ 8.01 µM) | 4.70 µg/mL (≈ 8.01 µM) |  | 
CS(=O)(=O)c1ccc2[nH]c(=O)c(C(c3cccc(Cl)c3)C3(O)CCNC(Cc4ccc(F)cc4F)C3)cc2c1 (centres unmarked) [Compound 307] | >15.12 µg/mL | >15.12 µg/mL |  | 
COc1nc2ccc(Br)cc2cc1C(c1ccc(Cl)cc1)C1(O)CCNC(Cc2ccc(F)cc2F)C1 (centres unmarked) [Compound 313] | 1.91 µg/mL (≈ 3.25 µM) |  |  | 2.4 µg/mL (≈ 4.08 µM)
COc1nc2ccc(Br)cc2cc1C(c1ccc(Cl)cc1)C1(O)CCNC(Cc2ccc(F)cc2F)C1 (centres unmarked) [Compound 319] | 2.40 µg/mL (≈ 4.08 µM) | 2.40 µg/mL (≈ 4.08 µM) |  | 
COc1nc2ccc(S(C)(=O)=O)cc2cc1C(c1cccc(Cl)c1)C1(O)CCNC(Cc2ccc(F)cc2F)C1 (centres unmarked) [Compound 325] | 19.04 µg/mL (≈ 32.4 µM) | >19.04 µg/mL |  | 

Continued, values first:

IC90 MSM 607 [1] | IC90 STA B29213 [2] | IC90 ([1]; Mycolicibacterium smegmatis, ATCC607, 48 h, read-out: IC90 MSM 607) | IC90 [2] | SMILES
>14.78 µg/mL | >14.78 µg/mL |  |  | Cc1cc(F)ccc1C1CC(O)(C(c2cccc(Cl)c2)c2cc3cc(S(C)(=O)=O)ccc3[nH]c2=O)CCN1 (centres unmarked) [Compound 272]
1.40 µg/mL (≈ 2.68 µM) | 1.76 µg/mL (≈ 3.36 µM) |  |  | CSc1ccc2[nH]c(=O)c(C(c3ccc(Cl)cc3)C3(O)CCNC(c4ccc(F)cc4C)C3)cc2c1 (centres unmarked) [Compound 277]
1.40 µg/mL (≈ 2.68 µM) | 1.77 µg/mL (≈ 3.38 µM) |  |  | CSc1ccc2[nH]c(=O)c(C(c3ccc(Cl)cc3)C3(O)CCNC(c4ccc(F)cc4C)C3)cc2c1 (centres unmarked) [Compound 278]
7.00 µg/mL (≈ 13.4 µM) | 7.00 µg/mL (≈ 13.4 µM) |  |  | Cc1cc(F)ccc1C1CC(O)(C(c2ccccc2)c2cc3cc(Br)ccc3[nH]c2=O)CCN1 (centres unmarked) [Compound 279]
1.10 µg/mL (≈ 2.11 µM) | 1.75 µg/mL (≈ 3.36 µM) |  |  | Cc1cc(F)ccc1C1CC(O)(C(c2ccccc2)c2cc3cc(Br)ccc3[nH]c2=O)CCN1 (centres unmarked) [Compound 280]
5.47 µg/mL (≈ 10.7 µM) |  |  | 6.88 µg/mL (≈ 13.5 µM) | Cc1cc(F)ccc1C1CC(O)(C(c2ccc(Cl)cc2)c2cc3cc(Cl)ccc3[nH]c2=O)CCN1 (centres unmarked) [Compound 303]
1.73 µg/mL (≈ 3.38 µM) | 3.45 µg/mL (≈ 6.75 µM) |  |  | Cc1cc(F)ccc1C1CC(O)(C(c2ccc(Cl)cc2)c2cc3cc(Cl)ccc3[nH]c2=O)CCN1 (centres unmarked) [Compound 304]
6.08 µg/mL (≈ 10.6 µM) | 7.65 µg/mL (≈ 13.3 µM) |  |  | CS(=O)(=O)c1ccc2[nH]c(=O)c(C(c3cccc(Cl)c3)C3(O)CCNC(Cc4ccc(F)cc4F)C3)cc2c1 (centres unmarked) [Compound 308]
11.52 µg/mL (≈ 21.3 µM) | 14.50 µg/mL (≈ 26.8 µM) |  |  | CSc1ccc2[nH]c(=O)c(C(c3cccc(Cl)c3)C3(O)CCNC(Cc4ccc(F)cc4F)C3)cc2c1 (centres unmarked) [Compound 309]
3.62 µg/mL (≈ 6.69 µM) | 3.62 µg/mL (≈ 6.69 µM) |  |  | CSc1ccc2[nH]c(=O)c(C(c3cccc(Cl)c3)C3(O)CCNC(Cc4ccc(F)cc4F)C3)cc2c1 (centres unmarked) [Compound 310]
3.63 µg/mL (≈ 6.71 µM) | 7.24 µg/mL (≈ 13.4 µM) |  |  | CSc1ccc2[nH]c(=O)c(C(c3cccc(Cl)c3)C3(O)CCNC(Cc4ccc(F)cc4F)C3)cc2c1 (centres unmarked) [Compound 311]
3.62 µg/mL (≈ 6.69 µM) | 3.62 µg/mL (≈ 6.69 µM) |  |  | CSc1ccc2[nH]c(=O)c(C(c3cccc(Cl)c3)C3(O)CCNC(Cc4ccc(F)cc4F)C3)cc2c1 (centres unmarked) [Compound 312]
4.83 µg/mL (≈ 8.42 µM) | 3.05 µg/mL (≈ 5.31 µM) |  |  | O=c1[nH]c2ccc(Br)cc2cc1C(c1ccc(Cl)cc1)C1(O)CCNC(Cc2ccc(F)cc2F)C1 (centres unmarked) [Compound 314]
3.84 µg/mL (≈ 6.69 µM) | 3.84 µg/mL (≈ 6.69 µM) |  |  | O=c1[nH]c2ccc(Br)cc2cc1C(c1ccc(Cl)cc1)C1(O)CCNC(Cc2ccc(F)cc2F)C1 (centres unmarked) [Compound 315]
3.05 µg/mL (≈ 5.31 µM) | 3.84 µg/mL (≈ 6.69 µM) |  |  | O=c1[nH]c2ccc(Br)cc2cc1C(c1ccc(Cl)cc1)C1(O)CCNC(Cc2ccc(F)cc2F)C1 (centres unmarked) [Compound 316]
1.92 µg/mL (≈ 3.35 µM) | 1.92 µg/mL (≈ 3.35 µM) |  |  | O=c1[nH]c2ccc(Br)cc2cc1C(c1ccc(Cl)cc1)C1(O)CCNC(Cc2ccc(F)cc2F)C1 (centres unmarked) [Compound 317]
12.18 µg/mL (≈ 21.2 µM) | 15.33 µg/mL (≈ 26.7 µM) |  |  | O=c1[nH]c2ccc(Br)cc2cc1C(c1ccc(Cl)cc1)C1(O)CCNC(Cc2ccc(F)cc2F)C1 (centres unmarked) [Compound 321]
3.85 µg/mL (≈ 6.71 µM) | 2.43 µg/mL (≈ 4.23 µM) |  |  | O=c1[nH]c2ccc(Br)cc2cc1C(c1ccc(Cl)cc1)C1(O)CCNC(Cc2ccc(F)cc2F)C1 (centres unmarked) [Compound 322]
6.10 µg/mL (≈ 10.6 µM) | 7.68 µg/mL (≈ 13.4 µM) |  |  | O=c1[nH]c2ccc(Br)cc2cc1C(c1ccc(Cl)cc1)C1(O)CCNC(Cc2ccc(F)cc2F)C1 (centres unmarked) [Compound 323]
3.43 µg/mL (≈ 5.98 µM) | 1.93 µg/mL (≈ 3.36 µM) |  |  | O=c1[nH]c2ccc(Br)cc2cc1C(c1ccc(Cl)cc1)C1(O)CCNC(Cc2ccc(F)cc2F)C1 (centres unmarked) [Compound 324]
